Measured values published in patent US8193356B2, “Heterocycle compound, and production process and application thereof” (Aska Pharmaceutical Co., Ltd., priority 2005, dated 2012).

Experiments:
[1] = tested on: T1, PDE IV isozyme separated from U937 cultured cell; test: PDE IV inhibitory action; type: biochemical; details: cAMP as substrate, 30° C. for 20 minutes, Probit method
T1 construct: PDE IV isozyme separated from U937 cultured cell by an ion exchange chromatography was used
Procedure: PDE IV isozyme separated from U937 cultured cell by an ion exchange chromatography was used. The PDE IV isozyme was added to ethylene glycol so that the final concentration of the isozyme was 30% by weight, and the solution was stored at −20° C. The stored solution was dissolved in use. The enzyme activity was measured by using cAMP as a substrate.
On the other hand, the test compound was dissolved in dimethylsulfoxide (DMSO) so that the final concentration of the test compound was 1% by weight (2.5 μL/tube), and the resulting solution was named Solution B.
Formulation of the incubation buffer (pH 7.5): Tris-hydrochloric acid (50 mM), magnesium chloride (6 mM), dithiothreitol (2.5 mM), 5-nucleotidase (4 μg/mL), bovine serum albumin (0.23 mg/mL), and cAMP (1 μM)
A mixture of the Solution B of the test compound and the Solution A was incubated at 30° C. for 20 minutes. Then, 1 mL of a slurry of an anion exchange resin (AG1-X8, 200-400 mesh, chloride form; manufactured by Bio-Rad Laboratories, Inc.) was added thereto, and the reaction was stopped by adsorption of an unreacted substrate on the resin.
After the stop of the reaction, the reaction mixture was centrifuged at a centrifugal acceleration of 800×g for 10 minutes, and 250 μL of the resulting supernatant was transferred in a vial. To the vial was added 5 mL of ACS-II (a scintillator manufactured by Amarsham Bioscience), and a [^3H]-adenosine radio activity was measured as a PDE IV activity by a liquid scintillation counter.

TNFα production = test: Inhibitory action on galactosamine- and LPS-induced TNFα production; type: in vivo; details: mouse, 0.5 mg/kg orally, serum TNFα one hour after galactosamine and LPS i.v., ELISA
Procedure: A dose (0.5 mg/kg) of the test compound suspended in 0.5% (W/V) CMC-Na aqueous solution was orally administered to a mouse. After one hour, galactosamine (800 mg/kg) and LPS (5 μg/kg) were intravenously administered to induce TNFα production. The amount of TNFα in serum one hour after the administration of galactosamine and LPS was measured by ELISA method.

CYP2D6 = target: T2, CYP2D6 (Homo sapiens, UniProt P10635); test: Inhibitory action on drug metabolizing enzyme (CYP2D6/AMMC high throughput inhibitor screening kit); type: in vitro ADME; details: CYP2D6 expression system microsome, AMMC substrate, 37° C. for 30 minutes
T2 construct: purchased BD Bioscience
Procedure: (§1) Inhibitory actions on CYP2D6 and CYP3A4 were measured by using a CYP2D6/AMMC high throughput inhibitor screening kit and a CYP3A4/BFC high throughput inhibitor screening kit (both manufactured by BD Bioscience), respectively. That is, an NADPH generation system, a cofactor, and the test compound were dispersed in a 96-well plate, and AMMC (CYP2D6) and BFC (CYP3A4), which were fluorescent substrates, were added to each well. Further, CYP2D6 expression system microsome and CYP3A4 expression system microsome were added to each well and incubated at 37° C. for 30 minutes. […] Incidentally, as a control substance of this test, roflumilast was used.

CYP3A4 = target: T3, CYP3A4 (Homo sapiens, UniProt P08684); test: Inhibitory action on drug metabolizing enzyme (CYP3A4/BFC high throughput inhibitor screening kit); type: in vitro ADME; details: CYP3A4 expression system microsome, BFC substrate, 37° C. for 30 minutes
T3 construct: purchased BD Bioscience
Procedure: as §1

T3 sequence (P08684 whole entry): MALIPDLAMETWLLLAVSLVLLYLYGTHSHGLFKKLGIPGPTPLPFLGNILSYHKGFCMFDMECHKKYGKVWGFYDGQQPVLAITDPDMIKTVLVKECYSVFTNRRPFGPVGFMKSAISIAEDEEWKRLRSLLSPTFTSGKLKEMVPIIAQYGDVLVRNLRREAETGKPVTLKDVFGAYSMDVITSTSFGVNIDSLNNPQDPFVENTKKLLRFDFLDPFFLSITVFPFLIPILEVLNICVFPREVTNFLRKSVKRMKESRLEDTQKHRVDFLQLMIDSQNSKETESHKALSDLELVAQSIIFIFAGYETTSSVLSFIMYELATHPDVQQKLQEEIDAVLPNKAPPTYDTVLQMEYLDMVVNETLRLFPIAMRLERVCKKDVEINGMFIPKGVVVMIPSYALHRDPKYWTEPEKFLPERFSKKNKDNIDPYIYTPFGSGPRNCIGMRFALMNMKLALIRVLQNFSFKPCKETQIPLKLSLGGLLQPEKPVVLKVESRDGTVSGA
T2 sequence (P10635 whole entry): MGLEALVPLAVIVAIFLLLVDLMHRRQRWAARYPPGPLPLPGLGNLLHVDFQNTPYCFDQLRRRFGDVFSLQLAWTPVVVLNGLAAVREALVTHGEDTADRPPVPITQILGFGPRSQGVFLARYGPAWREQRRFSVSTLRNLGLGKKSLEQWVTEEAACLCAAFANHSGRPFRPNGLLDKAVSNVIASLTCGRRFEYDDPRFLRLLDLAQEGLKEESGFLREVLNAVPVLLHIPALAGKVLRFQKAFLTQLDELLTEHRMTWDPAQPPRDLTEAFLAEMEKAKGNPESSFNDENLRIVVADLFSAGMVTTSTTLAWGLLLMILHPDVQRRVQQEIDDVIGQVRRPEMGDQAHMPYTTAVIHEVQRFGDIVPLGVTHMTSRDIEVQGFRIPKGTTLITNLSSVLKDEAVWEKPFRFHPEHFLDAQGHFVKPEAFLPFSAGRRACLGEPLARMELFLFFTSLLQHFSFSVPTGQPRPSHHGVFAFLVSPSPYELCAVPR

Row | melting point | Structure (SMILES) | Inhibitory rate (%) of TNFα production in 0.5 mg/kg (TNFα production) | also measured
1 |  | CC(c1ccccc1)c1n[nH]c2c1c(=O)n(-c1ccccc1)c1ncccc21 (stereo not drawn) [Example 11, 5-Phenyl-3-(1-phenylethyl)-1H-pyrazolo[4,3-c][1,8]naphthyridin-4(5H)-one] | 49% | IC50 [1]: 0.014 µM; IC50 (CYP2D6): > 10 µM; IC50 (CYP3A4): 8.9 µM
2 |  | O=c1c2c(Cc3ccccc3)n[nH]c2c2cccnc2n1-c1cccc(C(F)(F)F)c1 [Example 2, 3-Benzyl-5-(3-trifluoromethylphenyl)-1H-pyrazolo[4,3-c][1,8]-naphthyridin-4(5H)-one] | 55% | IC50 [1]: 0.007 µM
3 | 292 to 294 °C | O=c1c2c(Cc3ccccc3C(F)(F)F)n[nH]c2c2cccnc2n1-c1ccccc1 [Example 8, 5-Phenyl-3-(2-trifluoromethylbenzyl)-1H-pyrazolo[4,3-c][1,8]naphthyridin-4(5H)-one] | 51% | IC50 [1]: 0.003 µM; IC50 (CYP2D6): > 10 µM; IC50 (CYP3A4): > 10 µM
4 |  | O=C(Nc1c(Cl)cncc1Cl)c1ccc(OC(F)F)c(OCC2CC2)c1 [Roflumilast, reference compound] | 50% | 
5 | 174 to 177 °C | O=c1c2c(Cc3cccc(OC(F)(F)F)c3)n[nH]c2c2cccnc2n1-c1cccc(OC(F)(F)F)c1 [Example 27, 3-(3-Trifluoromethoxybenzyl)-5-(3-trifluoromethoxyphenyl)-1H-pyrazolo[4,3-c][1,8]naphthyridin-4(5H)-one] |  | 
6 | 183 to 185 °C | CC(c1ccccc1)c1n[nH]c2c1c(=O)n(-c1cccc(OC(F)(F)F)c1)c1ncccc21 (stereo not drawn) [Example 36, 3-(1-Phenylethyl)-5-(3-trifluoromethoxyphenyl)-1H-pyrazolo[4,3-c][1,8]naphthyridin-4(5H)-one] |  | 
7 | 253 to 254 °C | O=c1c2c(Cc3cccc(OC(F)(F)F)c3)n[nH]c2c2cccnc2n1-c1ccccc1 (hydrate or solvate) [Example 5, 5-Phenyl-3-(3-trifluoromethoxybenzyl)-1H-pyrazolo[4,3-c][1,8]naphthyridin-4(5H)-one] |  | 
8 | 206 to 209 °C | O=c1c2c(Cc3cccc(C(F)(F)F)c3)n[nH]c2c2cccnc2n1-c1cccc(OC(F)(F)F)c1 [Example 24, 5-(3-Trifluoromethoxyphenyl)-3-(3-trifluoromethylbenzyl)-1H-pyrazolo[4,3-c][1,8]naphthyridin-4(5H)-one] |  | 
9 | 273 to 275 °C | O=c1c2c(Cc3ccccc3Cl)n[nH]c2c2cccnc2n1-c1cccc(OC(F)(F)F)c1 (hydrate or solvate) [Example 33, 3-(2-Chlorobenzyl)-5-(3-trifluoromethoxyphenyl)-1H-pyrazolo[4,3-c][1,8]-naphthyridin-4(5H)-one] |  | 
10 | 129 to 132 °C | O=c1c2c(Cc3cccc(OC(F)(F)F)c3)n[nH]c2c2cccnc2n1-c1cccc(C(F)(F)F)c1 [Example 21, 3-(3-Trifluoromethoxybenzyl)-5-(3-trifluoromethylphenyl)-1H-pyrazolo[4,3-c][1,8]naphthyridin-4(5H)-one] |  | 
11 |  | O=c1c2c(Cc3ccccc3)n[nH]c2c2cccnc2n1-c1cccc(OC(F)(F)F)c1 [Example 1, 3-Benzyl-5-(3-trifluoromethoxyphenyl)-1H-pyrazolo[4,3-c][1,8]-naphthyridin-4(5H)-one] | 47% | IC50 [1]: 0.003 µM
12 | 247 to 252 °C | O=c1c2c(Cc3ccccc3OC(F)(F)F)n[nH]c2c2cccnc2n1-c1cccc(C(F)(F)F)c1 [Example 20, 3-(2-Trifluoromethoxybenzyl)-5-(3-trifluoromethylphenyl)-1H-pyrazolo[4,3-c][1,8]naphthyridin-4(5H)-one] |  | 
13 | 272 to 274 °C | O=c1c2c(CCC(F)(F)F)n[nH]c2c2cccnc2n1-c1ccccc1 [Example 14, 5-Phenyl-3-(3,3,3-trifluoropropyl)-1H-pyrazolo[4,3-c][1,8]naphthyridin-4(5H)-one] |  | 
14 | 275 °C (dec.) | O=c1c2c(Cc3ccccc3OC(F)(F)F)n[nH]c2c2cccnc2n1-c1ccccc1 (hydrate or solvate) [Example 4, 5-Phenyl-3-(2-trifluoromethoxybenzyl)-1H-pyrazolo[4,3-c][1,8]naphthyridin-4(5H)-one] |  | 
15 | 303 to 307 °C | O=c1c2c(Cc3ccccc3)n[nH]c2c2ccncc2n1-c1ccccc1 [Example 29, 3-Benzyl-5-phenyl-1H-pyrazolo[4,3-c][1,7]naphthyridin-4(5H)-one] |  | 
